Our source for the MIC, ED50 and solubility values is US4464367A, “Cephalosporin derivatives, process for preparation thereof and drugs containing said derivatives usable as antibiotics” (Sanofi, priority 1980, dated 1984).

For data set [1], the system named is Klebsiella pneumoniae IP E 55. The data set can be described thus: in vitro bacteriostatic action, solid medium, dilutions method. The settings on record: IPE55, not producing lactamases, read-out: minimum inhibitor concentration (MIC). The data set is classed as cell-based. As for the experimental part:
(§1) The in vitro bacteriostatic action was determined in a solid medium by the dilutions method. The study was directed to Gram^+ and Gram^- strains of which several are known for producing β lactamases.
(§2) The results are expressed in the minimum inhibitor concentrations (MIC--μg/ml).

In data set [2] the test system is Escherichia coli R 69/2 TEM. The description is as above. The settings on record: R69/2TEM, read-out: minimum inhibitor concentration (MIC). The data set is classed as cell-based. As for the experimental part:
as §1, §2

Data set [3] relates to Klebsiella pneumoniae RO 30. The data set is described as above. The data set is classed as cell-based. The settings on record: RO30, producing lactamases, read-out: minimum inhibitor concentration (MIC). The protocol: as §1, §2
Data set [4] has as its system Escherichia coli A 223. The description is as above. The data set is classed as cell-based. The settings on record: A223, not producing lactamases, read-out: minimum inhibitor concentration (MIC). The protocol: as §1, §2
In data set [5] the test system is Staphylococcus aureus Smith. The data set is described as above. The settings on record: not producing lactamases, read-out: minimum inhibitor concentration (MIC). The data set is classed as cell-based. As for the experimental part:
as §1, §2

Data set [6] has as its system Escherichia coli SOL RL 90. The data set is described as above. The data set is classed as cell-based. The settings on record: SOLRL90, producing lactamases, read-out: minimum inhibitor concentration (MIC). The protocol: as §1, §2
For data set [7], the system named is Escherichia coli SOL RL 90. The data set can be described thus: therapeutic efficacy in septicaemia provoked in the mouse by Escherichia coli SOL RL 90. The data set is classed as in vivo. The settings on record: SOLRL90, sc, 96 h, read-out: DE 50 (median effective dose, ED 50). The protocol:
The therapeutic efficacy of the products is determined in the septicaemic model of the mouse.
Septicaemia is provoked by intraperitoneal inoculation of 0.5 ml of an appropriate dilution of suspension of the strain E.coli Sol. RL 90 producing cephalosporinase.
The products are administered in solution in a phosphate buffer pH 7.0 in a volume of 0.2 ml by the sub-cutaneous route and at a rate of 5 doses (mg of product per kg of live weight of mouse) to batches of 10 mice 1 hour and 5 hours after inoculation of the germ.
After 4 days of observation during which the mortality is noted, the median effective doses (ED 50) are calculated by the Muench and Reed method.

A short description of data set [8]: solubility in a buffer solution. The settings on record: pH 7, aqueous buffer; buffer solution having a pH of 7. The data set is classed as physicochemical. The source says:
The pharmaceutical compositions are made from compounds (I) in their acid form or, when their solubility is insufficient, in the form of a salt.

Molecules are shown by their SMILES. Converted amounts (≈) assume the structure as drawn. Structures can show the parent of a compound that is named as a salt. Where two headings read alike, the source gives them in different places.

`CO/N=C(\C(=O)NC1C(=O)N2C(C(=O)O)=C(CSC(=O)c3cccs3)CSC12)c1csc(N)n1` (stereo not drawn) [31 917, syn isomer [(amino-2 thiazolyl-4)-2 methoxyimino-2 acetamido]-7 (thienyl-2 carbonylthiomethyl)-3 cepheme-3 4-carboxylic acid]: the MIC in data set [1] came to 1 µg/mL (≈ 1.85 µM); in data set [2], 0.5 µg/mL (≈ 0.927 µM); in data set [3] it was 8 µg/mL (≈ 14.8 µM); in data set [4], 0.5 µg/mL (≈ 0.927 µM); in data set [5] it was 0.25 µg/mL (≈ 0.463 µM); in data set [6] it was 2 µg/mL (≈ 3.71 µM). For the same compound, in data set [7], the ED50 was determined as 3.6 mg/kg.
Consider `CO/N=C(\C(=O)NC1C(=O)N2C(C(=O)O)=C(CSC(=O)c3ccco3)CSC12)c1csc(N)n1` (stereo not drawn) [31 916, Syn isomer [(amino-2 thiazolyl-4)-2 methoxyimino-2 acetamido]-7 (furyl-2 carbonylthiomethyl)-3 cepheme-3 4-carboxylic acid], for which the MIC in data set [1] stood at 1 µg/mL (≈ 1.91 µM); in data set [2] it was 0.25 µg/mL (≈ 0.477 µM); in data set [3] it was 8 µg/mL (≈ 15.3 µM); in data set [4], 0.5 µg/mL (≈ 0.955 µM); in data set [5], 0.25 µg/mL (≈ 0.477 µM); in data set [6] it was 2 µg/mL (≈ 3.82 µM). Moreover, in data set [7] (mouse septicaemia, sub-cutaneous, 1 hour and 5 hours after inoculation, 4 days of observation, Muench and Reed method), the ED50 came out at 5.4 mg/kg.
Regarding `CO/N=C(\C(=O)NC1C(=O)N2C(C(=O)O)=C(CSC(=O)c3ccco3)CSC12)c1csc(N)n1` (stereo not drawn) [sodium salt of compound CM 31916], the solubility (in general, how much of the substance goes into solution per volume) in data set [8] was above 200 mg/mL.
